From patent publication US8648116B2, “Derivatives of N-(arylamino) sulfonamides including polymorphs as inhibitors of MEK as well as compositions, methods of use and methods for preparing the same” (Ardea Biosciences, Inc., priority 2005, dated 2014)

The molecules below were run on phosphorylated ERK in MDA-MB-231 breast cancer cells (assay: Generation of EC50 data: Western blotting for phosphorylated ERK in EGF-stimulated cells). Details: EC50 class.
Type: cell-based
Method: Effects of compounds in the cell were determined by Western blotting for phosphorylated ERK. MDA-MB-231 breast cancer cells were plated in a 48 well plate at 20,000 cells per well and grown in a 37° humidified CO2 incubator. The following day, the growth media (DMEM+10% fetal bovine serum) was removed and replaced with starve media (DMEM+0.1% fetal bovine serum). Cells were incubated in the starve media for sixteen hours and then treated with a range of compound concentrations for thirty minutes. After incubation with compound, cells were stimulated with 100 ng/ml EGF for five minutes. The cells were then lysed and analyzed by Western blot using a monoclonal antibody raised to phosphorylated ERK. The signal was amplified using a secondary antibody conjugated to a near-IR dye and detected on a Licor Odyssey scanner.

COc1cc(F)c(F)c(Nc2ccc(I)cc2F)c1NS(=O)(=O)C1(C[C@H](O)CO)CC1 [Eg. 98 (S isomer)] and COc1cc(F)c(F)c(Nc2ccc(I)cc2F)c1NS(=O)(=O)C1(CC(O)CO)CC1 (racemic) [Eg. 97 (Racemic), N-(3,4-difluoro-2-(2-fluoro-4-iodophenylamino)-6-methoxyphenyl)-1-(2,3-dihydroxypropyl)cyclopropane-1-sulfonamide] cannot be ordered by EC50: less than 2 nM for the first, less than 2 nM for the second.

Same assay, conditions: Homo sapiens; EC50 classes per legend (pERK, MDA-MB-231 cells); classes D and F also cite IC50

Compared with CCc1cc(F)c(F)c(Nc2ccc(I)cc2F)c1NS(=O)(=O)C1(CC(O)CO)CC1 (stereo not drawn) [Example 1029], O=S(=O)(Nc1c(F)cc(F)c(F)c1Nc1ccc(I)cc1F)C1(C[C@H](O)CO)CC1 [Example 1023] is lower in EC50: 15 to 100 nM for the first, 2 to 15 nM for the second. The second is the more potent here.

Compared with CCCCS(=O)(=O)Nc1ccc(F)c(F)c1Nc1ccc(I)cc1F [Example 1003], CS(=O)(=O)Nc1ccc(F)c(F)c1Nc1ccc(I)cc1F [Example 1000] is lower in EC50: 15 to 100 nM for the first, less than 2 nM for the second.

COc1cc(F)c(F)c(Nc2ccc(I)cc2F)c1NS(=O)(=O)C1(CC(O)CO)CC1 (racemic) [Example 1019] and COc1cc(F)c(F)c(Nc2ccc(I)cc2F)c1NS(=O)(=O)C1(C[C@H](O)CO)CC1 [Example 1021] cannot be ordered by EC50: less than 2 nM for the first, less than 2 nM for the second.

O=S(=O)(Nc1ccc(F)c(F)c1Nc1ccc(I)cc1F)C1CCCCC1 [Example 1008] and O=S(=O)(Nc1ccc(F)c(F)c1Nc1ccc(I)cc1F)C1CCCC1 [Example 1007] fall in the same range of EC50: 15 to 100 nM for the first, 15 to 100 nM for the second.

COc1cc(F)c(F)c(Nc2ccc(I)cc2F)c1NS(=O)(=O)C1CCC1 [Example 1025] and COc1cc(F)c(F)c(Nc2ccc(I)cc2F)c1NS(=O)(=O)C1CC1 [Example 1013] fall in the same range of EC50: 2 to 15 nM for the first, 2 to 15 nM for the second.

O=S(=O)(Nc1ccc(F)c(F)c1Nc1ccc(I)cc1F)c1cccs1 [Example 1005] and O=S(=O)(Nc1ccc(F)c(F)c1Nc1ccc(I)cc1F)c1ccsc1 [Example 1016] fall in the same range of EC50: 15 to 100 nM for the first, 15 to 100 nM for the second.

Compared with COc1cc(F)c(F)c(Nc2ccc(I)cc2F)c1NS(=O)(=O)C1(CC(CO)CO)CC1 [Example 1028], COc1cc(F)c(F)c(Nc2ccc(I)cc2F)c1NS(=O)(=O)C1(C[C@@H](O)CO)CC1 [Example 1022] is higher in EC50: less than 2 nM for the first, 2 to 15 nM for the second. The first is the more potent here.

Compared with Cc1ccc(S(=O)(=O)Nc2ccc(F)c(F)c2Nc2ccc(I)cc2F)s1 [Example 1011], O=S(=O)(Nc1ccc(F)c(F)c1Nc1ccc(I)cc1F)c1ccccc1F [Example 1015] is higher in EC50: 15 to 100 nM for the first, greater than 100 nM for the second.

First: CC(C)(C)S(=O)(=O)Nc1ccc(F)c(F)c1Nc1ccc(I)cc1F [Example 1009]
Second: CC1(S(=O)(=O)Nc2ccc(F)c(F)c2Nc2ccc(I)cc2F)CC1 [Example 1012]
The EC50 of the first is higher: 15 to 100 nM for the first, 2 to 15 nM for the second.

Compared with COc1cc(F)c(F)c(Nc2ccc(I)cc2F)c1NS(=O)(=O)C1(CCO)CC1 [Example 1026], COCCOc1cc(F)c(F)c(Nc2ccc(I)cc2F)c1NS(=O)(=O)C1(CC(O)CO)CC1 (stereo not drawn) [Example 1030] is higher in EC50: less than 2 nM for the first, 15 to 100 nM for the second.

First: O=S(=O)(Nc1ccc(F)c(F)c1Nc1ccc(I)cc1F)c1ccccc1 [Example 1014]
Second: O=S(=O)(Nc1ccc(F)c(F)c1Nc1ccc(I)cc1F)C1CC1 [Example 1001]
The EC50 of the first is higher: 15 to 100 nM for the first, less than 2 nM for the second. The second is the more potent here.

First: COc1cc(F)c(F)c(Nc2ccc(C)cc2C)c1NS(C)(=O)=O [Example 1010]
Second: Cc1cc(I)ccc1Nc1c(NS(=O)(=O)C2CC2)ccc(F)c1F [Example 1017]
The EC50 of the first is lower: less than 2 nM for the first, 2 to 15 nM for the second.

Compared with O=S(=O)(Nc1c(F)cc(F)c(F)c1Nc1ccc(I)cc1F)C1(CC(O)CO)CC1 (racemic) [Example 1020], O=S(=O)(Nc1c(F)cc(F)c(F)c1Nc1ccc(I)cc1F)C1(C[C@@H](O)CO)CC1 [Example 1024] is higher in EC50: less than 2 nM for the first, 2 to 15 nM for the second.

First: O=S(=O)(Nc1c(F)cc(F)c(F)c1Nc1ccc(I)cc1F)C1CC1 [Example 1004]
Second: O=S(=O)(Nc1ccc(F)c(F)c1Nc1ccc(I)cc1F)C1(CC(O)CO)CC1 (racemic) [Example 1018]
The EC50 of the first is higher: 15 to 100 nM for the first, less than 2 nM for the second. The second is the more potent here.
